The numbers were not newly measured in paper PMC4110205 (Toxicology and applied pharmacology, 2014), which cites them from elsewhere.

Usually Km stands for the concentration of substrate that gives half-maximal velocity. One may read the kcat as the maximal rate divided by the concentration of active sites.

For the series, the target named is T1, hFMO2.1 (Homo sapiens, UniProt Q99518).
T1 sequence (Q99518 1-535): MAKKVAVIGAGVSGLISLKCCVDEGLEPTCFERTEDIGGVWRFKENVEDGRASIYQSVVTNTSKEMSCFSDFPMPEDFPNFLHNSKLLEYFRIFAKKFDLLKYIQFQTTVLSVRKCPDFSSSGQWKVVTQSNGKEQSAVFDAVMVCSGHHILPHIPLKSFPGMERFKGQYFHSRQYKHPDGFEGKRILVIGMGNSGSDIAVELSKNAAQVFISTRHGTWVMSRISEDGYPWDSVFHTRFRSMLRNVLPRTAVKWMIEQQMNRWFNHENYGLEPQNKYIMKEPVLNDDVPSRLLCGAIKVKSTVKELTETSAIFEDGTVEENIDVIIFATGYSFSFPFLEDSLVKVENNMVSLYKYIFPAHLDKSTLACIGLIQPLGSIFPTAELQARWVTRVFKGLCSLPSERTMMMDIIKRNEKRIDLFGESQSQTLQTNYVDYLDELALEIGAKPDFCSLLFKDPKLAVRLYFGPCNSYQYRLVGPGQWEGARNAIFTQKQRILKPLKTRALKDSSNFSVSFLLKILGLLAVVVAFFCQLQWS
The conditions noted are these: expressed hFMO2; ref Henderson et al., 2004.
As to `NC(N)=S` [Thiourea], the Km was 27 µM and the catalytic constant (kcat) was 0.85 s⁻¹.

In the case of `NC(=S)Nc1cccc2ccccc12` [α-naphthylthiourea], the Km was 42 µM and the kcat was 0.55 s⁻¹.

In the case of `NC(=S)Nc1ccccc1` [phenylthiourea], the Km was 29 µM and the turnover number (kcat) is 0.4 s⁻¹.

As to `S=C1NCCN1` [ethylenethiourea], the Michaelis constant (Km) was 14 µM and the kcat is 0.8 s⁻¹.
